# Where two headings read alike, the source gives them in different places.
# Assays:
# [1] = system: Puccinia triticina; assay: Fungicidal activity: Wheat Brown Rust (PUCCRT); assay type: in vivo; conditions: for pest or weed control at 100 µg/mL: High Volume (100 ppm); for pest or weed control at 121.5 g/ha: Low Volume (121.5 g/H)
# Method: (§1) Technical grades of materials were dissolved in acetone, which were then mixed with nine volumes of water containing 110 ppm Triton X-100. The fungicide solutions were applied onto wheat seedlings using an automated booth sprayer to run-off. All sprayed plants were allowed to air dry prior to further handling. All fungicides were evaluated using the aforementioned method for their activity vs. all target diseases, unless stated otherwise. Wheat leaf blotch and brown rust activity were also evaluated using track spray applications, in which case the fungicides were formulated as EC formulations, containing 0.1% Trycol 5941 in the spray solutions. Wheat plants (variety Yuma) were grown from seed in a greenhouse in 50% mineral soil/50% soil-less Metro mix until the first leaf was fully emerged, with 7-10 seedlings per pot. These plants were inoculated with an aqueous spore suspension of Septoria tritici either prior to or after fungicide treatments. After inoculation the plants were kept in 100% relative humidity (one day in a dark dew chamber followed by two to three days in a lighted dew chamber at 20° C.) to permit spores to germinate and infect the leaf. The plants were then transferred to a greenhouse set at 20° C. for disease to develop. When disease symptoms were fully expressed on the 1st leaves of untreated plants, infection levels were assessed on a scale of 0 to 100 percent disease severity. Percent disease control was calculated using the ratio of disease severity on treated plants relative to untreated plants. Evaluation of Fungicidal Activity: Wheat Brown Rust (Puccinia triticina; Synonym: Puccinia recondite f. Sp. Tritici; Bayer Code PUCCRT) Wheat plants (variety Yuma) were grown from seed in a greenhouse in 50% mineral soil/50% soil-less Metro mix until the first leaf was fully emerged, with 7-10 seedlings per pot. These plants were inoculated with an aqueous spore suspension of Puccinia triticina either prior to or after fungicide treatments. After inoculation the plants were kept in a dark dew room at 22° C. with 100% relative humidity overnight to permit spores to germinate and infect the leaf. The plants were then transferred to a greenhouse set at 24° C. for disease to develop. Fungicide formulation, application and disease assessment followed the procedures as described in the Example A.
# [2] = system: Mycosphaerella graminicola; Anamorph: Septoria tritici; assay: Fungicidal activity: Leaf Blotch of Wheat (SEPTTR); assay type: in vivo; conditions: Zymoseptoria tritici, wheat leaf blotch; for pest or weed control at 100 µg/mL: High Volume (100 ppm); for pest or weed control at 121.5 g/ha: Low Volume (121.5 g/H)
# Method: as §1, with “Evaluation of Fungicidal Activity: Leaf Blotch of Wheat (Mycosphaerella graminicola; Anamorph: Septoria tritici; Bayer Code […]) Technical” for “Technical”, “plants.” for “plants. Evaluation of Fungicidal Activity: Wheat Brown Rust (Puccinia triticina; Synonym: Puccinia recondite f. Sp. Tritici; Bayer Code PUCCRT) Wheat plants (variety Yuma) were grown from seed in a greenhouse in 50% mineral soil/50% soil-less Metro mix until the first leaf was fully emerged, with 7-10 seedlings per pot. These plants were inoculated with an aqueous spore suspension of Puccinia triticina either prior to or after fungicide treatments. After inoculation the plants were kept in a dark dew room at 22° C. with 100% relative humidity overnight to permit spores to germinate and infect the leaf. The plants were then transferred to a greenhouse set at 24° C. for disease to develop. Fungicide formulation, application and disease assessment followed the procedures as described in the Example A.”
# [3] = 24 h, 1 Day Protectant, read-out: PUCCRT 1 DP disease control
# [4] = 72 h, 3 Day Curative, read-out: PUCCRT 3 DC disease control
# [5] = 24 h, 1 Day Protectant, read-out: SEPTTR 1 DP disease control
# [6] = 72 h, 3 Day Curative, read-out: SEPTTR 3 DC disease control
Compound,"pest or weed control at 100 µg/mL [1, 3]","pest or weed control at 100 µg/mL [1, 4]","pest or weed control at 100 µg/mL [2, 5]","pest or weed control at 100 µg/mL [2, 6]","pest or weed control at 121.5 g/ha [1, 3]","pest or weed control at 121.5 g/ha [1, 4]","pest or weed control at 121.5 g/ha [2, 5]","pest or weed control at 121.5 g/ha [2, 6]"
COc1ccnc(C(=O)N[C@H]2COC[C@H](Cc3ccccc3)[C@@H](Cc3ccccc3)[C@@H](C)OC2=O)c1OCOC(C)=O [compound 2],< 70%,< 70%,< 70%,< 70%,,,,
COc1ccnc(C(=O)N[C@H]2COC[C@@H]3CCCC[C@H]3[C@@H](C)OC2=O)c1OCOC(C)=O [compound 5],< 70%,,< 70%,< 70%,,,,
COc1ccnc(C(=O)N[C@H]2COC[C@@H]3CCCC[C@H]3[C@H](C)OC2=O)c1OCOC(C)=O [compound 6],> 70%,,< 70%,< 70%,,,,
COc1ccnc(C(=O)N[C@H]2COC[C@H](CCC(C)C)[C@@H](CCC(C)C)[C@H](C)OC2=O)c1OCOC(C)=O [compound 8],> 70%,> 70%,> 70%,> 70%,,,,
COc1ccnc(C(=O)N[C@H]2COC[C@H](Cc3ccccc3)[C@@H](COCC(C)C)[C@H](C)OC2=O)c1OCOC(C)=O [compound 12],> 70%,> 70%,> 70%,> 70%,> 70%,< 70%,> 70%,> 70%
CCCC[C@@H]1[C@@H](Cc2ccccc2)COC[C@H](NC(=O)c2nccc(OC)c2OCOC(C)=O)C(=O)O[C@H]1C [compound 14],< 70%,< 70%,< 70%,< 70%,,,,
CCCC[C@@H]1[C@@H](Cc2ccccc2)COC[C@H](NC(=O)c2nccc(OC)c2OC(C)=O)C(=O)O[C@H]1C [compound 15],> 70%,> 70%,> 70%,> 70%,> 70%,> 70%,> 70%,> 70%
COc1ccnc(C(=O)N[C@H]2COC[C@H](Cc3ccccc3)[C@@H](CC(C)C)[C@H](C)OC2=O)c1OC(C)=O [compound 18],,,,,> 70%,< 70%,> 70%,> 70%
COc1ccnc(C(=O)N[C@H]2COC[C@H](Cc3ccccc3)[C@@H](CC(C)C)[C@H](C)OC2=O)c1OCOC(C)=O [compound 19],,,,,> 70%,> 70%,> 70%,> 70%
COc1ccnc(C(=O)N[C@H]2COC[C@H](Cc3ccccc3)[C@@H](CC(C)C)[C@H](C)OC2=O)c1OCOC(=O)C(C)C [compound 20],,,,,> 70%,> 70%,> 70%,> 70%
CCOCC(=O)OCOc1c(OC)ccnc1C(=O)N[C@H]1COC[C@H](Cc2ccccc2)[C@@H](CC(C)C)[C@H](C)OC1=O [compound 21],,,,,> 70%,> 70%,> 70%,> 70%
CCC[C@H]1COC[C@H](NC(=O)c2nccc(OC)c2OC(C)=O)C(=O)O[C@@H](C)[C@@H]1Cc1ccccc1 [compound 22],,,,,> 70%,> 70%,> 70%,> 70%
CCC[C@H]1COC[C@H](NC(=O)c2nccc(OC)c2OCOC(C)=O)C(=O)O[C@@H](C)[C@@H]1Cc1ccccc1 [compound 23],,,,,> 70%,> 70%,> 70%,> 70%
CCC[C@H]1COC[C@H](NC(=O)c2nccc(OC)c2OCOC(=O)C(C)C)C(=O)O[C@@H](C)[C@@H]1Cc1ccccc1 [compound 24],,,,,> 70%,> 70%,> 70%,> 70%
CCC[C@H]1COC[C@H](NC(=O)c2nccc(OC)c2OCOC(=O)COCC)C(=O)O[C@@H](C)[C@@H]1Cc1ccccc1 [compound 25],,,,,> 70%,> 70%,> 70%,> 70%
COc1ccnc(C(=O)N[C@H]2COC[C@H](CC3CCCC3)[C@@H](CC3CCCC3)[C@H](C)OC2=O)c1OCOC(C)=O [compound 26],,,,,> 70%,> 70%,> 70%,> 70%
CCOCC(=O)OCOc1c(OC)ccnc1C(=O)N[C@H]1COC[C@H](Cc2ccccc2)[C@@H](Cc2ccccc2)[C@H](C)OC1=O [compound 28],,,,,> 70%,> 70%,> 70%,> 70%
COc1ccnc(C(=O)N[C@H]2COC[C@H](Cc3ccccc3)[C@@H](CCc3ccccc3)[C@H](C)OC2=O)c1OC(C)=O [compound 29],,,,,> 70%,> 70%,> 70%,> 70%
COc1ccnc(C(=O)N[C@H]2COC[C@H](Cc3ccccc3)[C@@H](CCc3ccccc3)[C@H](C)OC2=O)c1OCOC(C)=O [compound 30],,,,,> 70%,> 70%,> 70%,> 70%
COc1ccnc(C(=O)N[C@H]2COC[C@H](Cc3ccccc3)[C@@H](CCc3ccccc3)[C@H](C)OC2=O)c1OCOC(=O)C(C)C [compound 31],,,,,> 70%,> 70%,> 70%,> 70%
CCOCC(=O)OCOc1c(OC)ccnc1C(=O)N[C@H]1COC[C@H](Cc2ccccc2)[C@@H](CCc2ccccc2)[C@H](C)OC1=O [compound 32],,,,,> 70%,> 70%,> 70%,> 70%
COc1ccnc(C(=O)N[C@H]2COC[C@H](CCC(C)C)[C@@H](CCc3ccccc3)[C@H](C)OC2=O)c1OC(C)=O [compound 33],,,,,> 70%,> 70%,> 70%,> 70%
COc1ccnc(C(=O)N[C@H]2COC[C@H](CCC(C)C)[C@@H](CCc3ccccc3)[C@H](C)OC2=O)c1OCOC(C)=O [compound 34],,,,,> 70%,> 70%,> 70%,> 70%
COc1ccnc(C(=O)N[C@H]2COC[C@H](CCC(C)C)[C@@H](CCc3ccccc3)[C@H](C)OC2=O)c1OCOC(=O)C(C)C [compound 35],,,,,> 70%,> 70%,> 70%,> 70%
